For orientation: Kd means the concentration at which binding is half-saturated. Low values mean higher affinity, high ones lower affinity.

This assay deals with T1, peroxiredoxin-2 (Prdx2) (Homo sapiens, UniProt P32119).
T1 construct: His-tagged recombinant Prdx2 (rhPrdx2)
T1 sequence (P32119 2-198): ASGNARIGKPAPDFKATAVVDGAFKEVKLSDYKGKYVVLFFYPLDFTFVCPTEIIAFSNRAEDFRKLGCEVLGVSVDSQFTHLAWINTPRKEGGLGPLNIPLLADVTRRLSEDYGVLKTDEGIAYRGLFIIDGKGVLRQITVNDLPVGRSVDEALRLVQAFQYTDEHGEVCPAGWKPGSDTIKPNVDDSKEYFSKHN
The assay can be described thus: ITC (also SPR KD […]; peroxidase inhibition IC50 […]). It is filed as binding.

`CC1=C(O)C(=O)C=C2C1=CC=C1[C@@]2(C)CC[C@@]2(C)[C@@H]3C[C@](C)(C(=O)O)CC[C@]3(C)CC[C@]12C` [Celastrol] gave a Kd of 650 nM.

For the origin of these results see article PMC7481428, “Celastrol induces ROS-mediated apoptosis via directly targeting peroxiredoxin-2 in gastric cancer cells” (Theranostics, 2020).
